Consider 13 compounds from US8956646B2, “Zwitterionic lipids” (The Regents of the University of California, priority 2010, dated 2015).

Entries after “also recorded” stand apart in the source; their conditions may differ.

For series [1] the following is noted: literature values, cited from earlier work; for Transition Temperatures (° C.), PC: PC headgroup; for Transition Temperatures (° C.), PE: PE headgroup.
The nature of series [2]: ZNLP hydrodynamic diameter, zeta potential and encapsulation efficiency. Format: physicochemical. To be noted: ZNLP encapsulating siRNA. The procedure: 5-10 min after particle formation liposomes are extruded through either 50 nm or 80 nm polycarbonate membranes 7 times. Methanol can be removed by either evaporation or dialysis.
FIG. 29 is a table showing ZNLP encapsulating siRNA: hydrodynamic diameter and zeta potential: siRNA was encapsulated into ZNLP from various zwitterionic lipids.
FIG. 30 is a table showing the effect of helper lipids on size and encapsulation efficiency: Changing helper lipid and lipid composition affects size and encapsulation efficiency of ZNLP. DOBA-Q formed small lipid vesicles≦80 nm. […] All lipid formulations display negative/neutral zeta potential.

A short description of series [3]: SBL liposome formation, diameter and PDI in various salts. Format: physicochemical. Also noted: key to Liposome diameter (nm): DNF=Did Not Form, no liposomes formed. The procedure: The five SBLs were first examined for their ability to make vesicles under standard buffer conditions (10 mM HEPES, 140 mM NaCl, pH 7.4). We observed that none of the five SBLs were able to form stable liposomes after thin film rehydration in this buffer followed by sonication at 80° C. […] To test if the SB headgroup inner salt interactions could be disrupted by an increase in salt concentration, the same liposome formation process was performed at increasing NaCl concentrations. Salts with different anions were also tested to determine if those predicted to have greater binding than Cl^− would allow for liposome formation at concentrations where NaCl was not able to. Liposome-formation results are shown in Table 4 for all five SBLs with a variety of salts and at various NaCl concentrations.
Liposome preparations were made at 26 mM lipid in 10 mM HEPES buffer, pH 7.4 with the specified salt concentration. All preparations were rehydrated and sonicated at 80° C. for 7 minutes, allowed to cool for 5 minutes and then measured.
Liposome diameters were measured both five minutes after sonication and at 24 hours. DPSB and DSSB in NaI both formed gels and could not be measured and DPSB and DSSB with KBr precipitated into particles too large and polydisperse for measurement.

A short description of series [4]: Zeta potential of liposomes as a function of calcium concentration. The note with it: across physiological Ca2+ concentrations. Format: physicochemical. As for the experimental part: Liposomes were prepared from either DOPC or DOCPe and their zeta potentials were measured in a Malvern zetaNano instrument as a function of the calcium concentration. Liposomes prepared from either lipid become more positively charged as the Ca^2+ concentration increases.

Series [5] can be described thus: Phase transition temperatures of sulfobetaine lipids (DSC). The series is classed as physicochemical. To be noted: for inner/outer salt form (high/low transition) as function of NaCl concentration: DSC, 10 mM HEPES pH 7.4, NaCl up to 1M; for Transition Temperatures (° C.), SB Inner Salt: hypothesized inner salt form, observed high phase transition; for Transition Temperatures (° C.), SB Outer Salt: hypothesized outer salt form, observed low phase transition. The procedure: All buffers contain 10 mM HEPES, pH 7.4. Preparations were made at 26 mM SB lipid by thin film rehydration at 80° C., followed by brief 20 second bursts of sonication at 80° C. (˜2-4 times) to make dispersions of large bilayer fragments.
Based on our observations that SBL liposome formation and stability is largely dependent on salt composition and concentration we sought to determine if these effects changed the transition temperatures of the liposomes. The data in FIG. 3 clearly depicts a bi-modal phase transition behavior for the SBLs. Without salt, the majority of the SBLs are likely in one of the inner salt forms supported by the observed elevated transition temperatures.
Inner and outer salt conformations of the SBLs are hypothesized to coordinate to the observed high and low phase transitions, respectively.

The mark [6] stands for this setting: 0 mM NaCl, 26 mM lipid, 10 mM HEPES pH 7.4.
Setting [7] is: 150 mM KBr, five minutes after sonication.
Where [8] appears, read: 150 mM NaCl, 26 mM lipid, 10 mM HEPES pH 7.4.
Setting [9] is: 150 mM NaClO4, five minutes after sonication.
[10] abbreviates: 150 mM NaI, five minutes after sonication.
Setting [11] is: 500 mM NaCl, 26 mM lipid, 10 mM HEPES pH 7.4.
Where [12] appears, read: 1000 mM NaCl, 26 mM lipid, 10 mM HEPES pH 7.4.

As to `CCCCCCCCCCCCCC(=O)OC[C@H](COP(=O)([O-])OCC[N+](C)(C)C)OC(=O)CCCCCCCCCCCCC` [C14 PC], the “Transition Temperatures (° C.), PC” value in series [1] is 24.2 °C.
On to `CCCCCCCCCCCCCC(=O)OC[C@H](COP(=O)(O)OCCN)OC(=O)CCCCCCCCCCCCC` [C14 PE], for which the “Transition Temperatures (° C.), PE” value in series [1] was 49.4 °C.
For `CCCCCCCCCCCCCCCC(=O)OC[C@H](COP(=O)([O-])OCC[N+](C)(C)C)OC(=O)CCCCCCCCCCCCCCC` [C16 PC], in series [1], the “Transition Temperatures (° C.), PC” value was 41.7 °C.
As to `CCCCCCCCCCCCCCCC(=O)OCC(COP(=O)(O)OCCN)OC(=O)CCCCCCCCCCCCCCC` (stereo not drawn) [C16 PE], the “Transition Temperatures (° C.), PE” value in series [1] was 63.5 °C.
As for `CCCCCCCCCCCCCCCCCC(=O)OC[C@H](COP(=O)([O-])OCC[N+](C)(C)C)OC(=O)CCCCCCCCCCCCCCCCC` [C18 PC], the “Transition Temperatures (° C.), PC” value in series [1] is 55.3 °C.
On to `CCCCCCCCCCCCCCCCCC(=O)OC[C@H](COP(=O)(O)OCCN)OC(=O)CCCCCCCCCCCCCCCCC` [C18 PE], for which the “Transition Temperatures (° C.), PE” value in series [1] was 74.4 °C.
Take `CCCCC/C=C\C/C=C\CCCCCCCC(=O)OC[C@H](COP(=O)(O)OCCN)OC(=O)CCCCCCC/C=C\C/C=C\CCCCC` [DIinPE, reference compound]: in series [2], the siRNA encapsulation efficiency result is listed as “decreases encapsulation efficiency”.
Turning to `CCCCCCCCCCCC(=O)OCC(C[N+](C)(C)CCCS(=O)(=O)[O-])OC(=O)CCCCCCCCCCC` (stereo not drawn) [DLSB], the “Liposome diameter (nm)” value is “DNF” in series [3] (setting [6]); 74.35 nm in series [3] (150 mM KBr (24 h)); 54.56 nm in series [3] (setting [7]); 1728 nm in series [3] (setting [8]); 37.32 nm in series [3] (150 mM NaClO4 (24 h)); 30.46 nm in series [3] (setting [9]). The “Liposome diameter (nm)” value in series [3] (150 mM NaF) is reported as “DNF”; in series [3] (150 mM NaI (24 h)) it was 39.24 nm; in series [3] (setting [10]), 28.93 nm; in series [3] (setting [11]), 41.7 nm; in series [3] (setting [12]) it was 56.5 nm. For the same compound, in series [3] (10 mM HEPES, 140 mM NaCl, pH 7.4, thin film rehydration, sonication at 80° C.), the “ability to make vesicles under standard buffer conditions” value is “formed large, polydisperse structures”. The PDI in series [3] (150 mM KBr (24 h)) was found to be 0.254; in series [3] (setting [7]), 0.276; in series [3] (setting [8]) it was 0.708; in series [3] (150 mM NaClO4 (24 h)), 0.251; in series [3] (setting [9]), 0.205; in series [3] (150 mM NaI (24 h)) it was 0.215. Further, the PDI in series [3] (setting [10]) is given as 0.163; in series [3] (setting [11]) it was 0.296; in series [3] (setting [12]) it was 0.361.
In the case of `CCCCCCCC/C=C\CCCCCCCC(=O)OCC(C[N+](C)(C)CCOP(=O)([O-])OCC)OC(=O)CCCCCCC/C=C\CCCCCCCC` (stereo not drawn) [DOCPe], the “zeta potential of liposomes” value in series [4] is listed as “remain negative”.
Regarding `CCCCCCCC/C=C\CCCCCCCC(=O)OC[C@H](COP(=O)([O-])OCC[N+](C)(C)C)OC(=O)CCCCCCC/C=C\CCCCCCCC` [DOPC, reference compound], the “zeta potential of liposomes” value in series [4] is listed as “become positively charged”.
Turning to `CCCCCCCC/C=C\CCCCCCCC(=O)OCC(C[N+](C)(C)CCCS(=O)(=O)[O-])OC(=O)CCCCCCC/C=C\CCCCCCCC` (stereo not drawn) [DOSB], the “Liposome diameter (nm)” value in series [3] (setting [6]) is recorded as “DNF”; in series [3] (150 mM KBr (24 h)) it was 137.6 nm; in series [3] (setting [7]), 120.8 nm; in series [3] (setting [8]), “DNF”; in series [3] (150 mM NaClO4 (24 h)) it was 69.18 nm; in series [3] (setting [9]), 67.7 nm. The “Liposome diameter (nm)” value in series [3] (150 mM NaF) was “DNF”; in series [3] (150 mM NaI (24 h)) it was 99.24 nm; in series [3] (setting [10]), 90.58 nm; in series [3] (setting [11]), 126.9 nm; in series [3] (setting [12]), 118.9 nm. Moreover, the PDI turned out to be 0.353 in series [3] (150 mM KBr (24 h)); 0.260 in series [3] (setting [7]); 0.235 in series [3] (150 mM NaClO4 (24 h)); 0.250 in series [3] (setting [9]); 0.253 in series [3] (150 mM NaI (24 h)); 0.246 in series [3] (setting [10]). Further, the PDI in series [3] (setting [11]) is reported as 0.197; in series [3] (setting [12]) it was 0.176.
Consider `CCCCCCCCCCCCCCCC(=O)OCC(C[N+](C)(C)CCCS(=O)(=O)[O-])OC(=O)CCCCCCCCCCCCCCC` (stereo not drawn) [DPSB], for which the phase transitions observed result in series [5] (150 mM NaClO4) is on record as “only the high transition”; in series [5] (150 mM NaF), “only the low transition”. Also, the “temperature of residual inner salt transition” value in series [5] (500 mM NaCl) came to 58 °C. Further, the “inner/outer salt form (high/low transition) as function of NaCl concentration” value in series [5] is on record as “switches from the inner salt to the outer salt at 500 mM”. For the same compound, in series [5], the “Transition Temperatures (° C.), SB Inner Salt” value is 60 °C. Besides, the “Transition Temperatures (° C.), SB Outer Salt” value in series [5] stood at 43 °C. Moreover, the “Liposome diameter (nm)” value in series [3] (setting [6]) was “DNF”; in series [3] (150 mM KBr (24 h)), “Precipitated”; in series [3] (setting [7]) it was 64.35 nm; in series [3] (setting [8]), “DNF”; in series [3] (150 mM NaClO4 (24 h)), 42.71 nm; in series [3] (setting [9]), 35.1 nm. For the same compound, the “Liposome diameter (nm)” value in series [3] (150 mM NaF) is listed as “DNF”; in series [3] (150 mM NaI (24 h)) it was “Formed Gel”; in series [3] (setting [10]), 57.45 nm; in series [3] (setting [11]), 66.95 nm; in series [3] (setting [12]), 92.53 nm. For the same compound, the PDI in series [3] (setting [7]) stood at 0.134; in series [3] (150 mM NaClO4 (24 h)), 0.353; in series [3] (setting [9]) it was 0.220; in series [3] (setting [10]), 0.296; in series [3] (setting [11]), 0.253; in series [3] (setting [12]) it was 0.275.
Consider `CCCCCCCCCCCCCCCCCC(=O)OCC(C[N+](C)(C)CCCS(=O)(=O)[O-])OC(=O)CCCCCCCCCCCCCCCCC` (stereo not drawn) [DSSB], for which, in series [5] (150 mM NaF, NaCl, KBr, NaI, NaClO4), the phase transitions observed entry is reported as “both transitions for all salts except NaClO4”. In series [5], the “inner/outer salt form (high/low transition) as function of NaCl concentration” value is on record as “never exists completely as the inner salt conformation, but does reside as the outer salt form at 500 mM; also recorded: small low transition peak in a buffer without NaCl”. In series [5], the “Transition Temperatures (° C.), SB Inner Salt” value stood at 68 °C. For the same compound, the “Transition Temperatures (° C.), SB Outer Salt” value in series [5] came out at 57 °C. Also, the “Liposome diameter (nm)” value is reported as “DNF” in series [3] (setting [6]); “Precipitated” in series [3] (150 mM KBr (24 h)); 102.3 nm in series [3] (setting [7]); “DNF” in series [3] (setting [8]); 71.96 nm in series [3] (150 mM NaClO4 (24 h)); 42.45 nm in series [3] (setting [9]). The “Liposome diameter (nm)” value in series [3] (150 mM NaF) was “DNF”; in series [3] (150 mM NaI (24 h)), “Formed Gel”; in series [3] (setting [10]) it was 43.31 nm; in series [3] (setting [11]) it was 122.7 nm; in series [3] (setting [12]), 137.9 nm. Moreover, the PDI in series [3] (setting [7]) worked out at 0.123; in series [3] (150 mM NaClO4 (24 h)), 0.282; in series [3] (setting [9]), 0.258; in series [3] (setting [10]) it was 0.231; in series [3] (setting [11]), 0.285; in series [3] (setting [12]), 0.404.
